Results reported in US20030109552A1, “Use of insulin sensitisers for treating renal diseases” (SmithKline Beecham p.l.c., priority 1994, published 2003).

Legend:
Assay type in all cases: in vivo, rat
[1] = test system: obese Zucker fa/fa rats; assay: Renal histopathology in obese Zucker fa/fa rats, 3 months dietary administration; design: key to Chronic Nephropathy (histopathological severity, kidney): 0: None seen; ±: Minimal; +: Mild; ++: Moderate; +++: Marked
Procedure: Obese Zucker rats are known to develop chronic nephropathy in addition to hyperlipidaemia, hyperinsulinaemia and peripheral insulin resistance (Kasiske et al 1985).
5-[4-[2-(N-methyl-N-(2-pyridyl)amino)ethoxy]benzyl]thiazolidine-2,4-dione (herein after referred to as ‘test compound’) was administered to 2-3 month old obese Zucker fa/fa rats by dietary administration to provide a daily dose over a period of 3 months ranging from 2.0-7.0 μmole/kg body weight. A group of age-matched obese Zucker fa/fa rats were given the same diet without the addition of the test compound, as was a group of lean Fa/? rats. At the end of the study, all of the control Zucker fa/fa rats had chronic nephropathy which involved dilated tubules, atrophied or hyperplastic tubular epithelial cells, thickened tubular basement membranes, segmented glomeruli or global glomerulosclerosis.

[2] = test system: Zucker fatty (fa/fa) rats; assay: Urinary N-acetyl β-D-glucosaminidase (NAG) activity in Zucker fatty rats, 9 month study
Procedure: (§1) A second study was performed in Zucker rats over a period of 9 months to investigate the longitudinal effects of the drug on systolic blood pressure and various indices of renal function, two of which are exemplified here. In one arm of the study, the drug was given in the diet (50 μmole/kg of diet) from aged 6-7weeks in Zucker fatty (fa/fa) rats, whilst in a second arm of the study, drug treatment as above was delayed until proteinuria had become established after 4 months, indicative of structural damage already present in the kidneys. A third group of Zucker fatty rats and a further group of lean rats were given diet alone throughout the period of study.
(§2) After dosing with the test compound, at monthly intervals measurements were made of systolic blood pressure, urinary total protein and urinary N-acetyl β-D-glucosaminidase (NAG) activity.
Twenty-four hour urine collections, made in metabolism cages, were aliquoted and frozen at −70° C. until required for assay.
NAG activity was assayed using a reagent kit on a Hitachi 717 analyser (both supplied by Boehringer Mannheim UK, Lewes). Enzyme activity was measured by monitoring the rate of chlorophenol (570 nm) released from the substrate chlorophenol red-β-D-glucosaminide.

[3] = test system: Zucker fatty (fa/fa) rats; assay: Systolic blood pressure (tail cuff) in Zucker fatty rats, 9 month study
Procedure: as §1, §2
Rats were enclosed in custom-built restrainers and placed on a shelf in a warming cabinet, whose temperature was controlled at approximately 30° C. An inflatable cuff with integral pulse sensor was attached to the tail of each rat. After warming for 20-30 min the tail cuff was inflated and deflated automatically and a measurement of systolic blood pressure made using an IITC Non-Invasive Blood Pressure Monitor. This cycle was repeated several times for each rat until stable values of blood pressure were obtained.

[4] = test system: Zucker fatty (fa/fa) rats; assay: Urinary total protein (Bio-Rad protein assay, 24 h urine) in Zucker fatty rats, 9 month study
Procedure: A second study was performed in Zucker rats over a period of 9 months to investigate the longitudinal effects of the drug on systolic blood pressure and various indices of renal function, two of which are exemplified here. […] A third group of Zucker fatty rats and a further group of lean rats were given diet alone throughout the period of study. After dosing with the test compound, at monthly intervals measurements were made of systolic blood pressure, urinary total protein and urinary N-acetyl β-D-glucosaminidase (NAG) activity. Twenty-four hour urine collections, made in metabolism cages, were aliquoted and frozen at −70° C. until required for assay. Urinary protein concentration was measured using the Bio-Rad protein assay as modified for use in a 96-well microtitre plate. The assay is a dye-binding assay based on the differential colour change of a dye in response to various concentrations of protein (Bradford, Anal. Biochem., 72, 248, 1976). After a period of incubation with Dye Reagent, diluted urine samples are read at an optical density of 595 nm using a Molecular Devices multiplate reader.

[5] = Zucker fatty (fa/fa) rats treated from the age of 6-7 weeks for 9 months via the diet
[6] = drug treatment commenced after proteinuria had become established

CN(CCOc1ccc(CC2SC(=O)NC2=O)cc1)c1ccccn1 (stereo not drawn) [Test Compound, 5-[4-[2-(N-methyl-N-(2-pyridyl)amino)ethoxy]benzyl]thiazolidine-2,4-dione]
Chronic Nephropathy (histopathological severity, kidney) ([1]; individual fatty Zucker rats, test compound in diet 2.0-7.0 μmole/kg body weight daily): ++
incidence and degree of chronic nephropathy compared to control Zucker fa/fa rats ([1]; obese Zucker fa/fa rats, diet, 2.0-7.0 μmole/kg daily): reduction in the incidence and degree of chronic nephropathy
hydronephrosis seen in treated rats ([1]; obese Zucker fa/fa rats, diet, 2.0-7.0 μmole/kg daily, controls 4/9): No hydronephrosis was seen
elevation of urinary NAG activity [2, 5]: markedly reduced
urinary NAG activity (further rise) [2, 6]: prevented from rising further
development of hypertension [3, 5]: prevented the development of hypertension
systolic blood pressure (further rise) [3, 6]: prevented from rising further
rate of development of proteinuria [4, 5]: markedly reduced
rate of increase in the urinary protein concentration [4, 6]: marked reduction of the rate of increase
